The results in this text go back to patent publication US20070117836A1, “NAPTHALIMIDE DERIVATIVES, METHODS FOR THEIR PRODUCTION AND PHARMACEUTICAL COMPOSITIONS THEREFROM” (priority 2004, published 2007).

In general, IC50 refers to the concentration at which inhibition is half-maximal.

The structures appear in SMILES notation. Like-named read-outs stand apart in the source and are kept apart here.

Data set [1] has as its system Six human cancer cell lines (Hs683, U-373MG, HCT-15, LoVo, A549, MCF-7). As to the kind of experiment: MTT test of overall cell growth. It is filed as cell-based. To be noted: range of molar concentrations giving 50% inhibition of overall tumor cells growth, MTT, 72 hours incubation, six human cancer cell lines, read-out: IC50. The method, then:
In order to characterize the in vitro activity of the compounds of the invention, MTT tests were performed to indirectly and rapidly measure, i.e. within 5 days, the effect of such a compound on the overall cell growth. The test measures the number of metabolically active living cells that are able to transform the yellow product 3-(4,5-dimethylthiazol-2-yl)-2,5-diphenyl tetrazolium bromide (herein referred as MTT) into the blue product formazan dye by mitochondrial reduction. The amount of formazan obtained at the end of the experiment was measured by means of a spectrophotometer and is directly proportional to the number of living cells. Determination of the optical density enables a quantitative measurement of the effect of the investigated compounds as compared to the control condition (untreated cells) and/or to other reference compounds (in casu mitonafide and amonafide).
Six human cancer cell lines described in table 1 were used in the MTT tests. These cell lines cover four histological cancer types, being glioma, colon, lung and breast cancers. Cells were allowed to grow in 96-well micro-wells with a flat bottom with an amount of 100 μl of cell suspension per well with 1,000 to 4,000 cells/well depending on the cell type used. Each cell line was seeded in an MEM 5% serum culture medium.
The detailed experimental procedure was as follows: after a 24-hour period of incubation at 37° C., the culture medium was replaced by 100 μl of fresh medium in which the compound to be tested was dissolved at the following molar concentrations: 10^−9 M, 5.10^−9 M, 10^−8 M, 5.10^−8 M, 10^−7 M, 5.10^−7 M, 10^−6 M, 5.10^−6 M and 10^−5 M. Each experiment was repeated 6 times.
After 72 hours of incubation at 37° C. with (experimental conditions) or without (control condition) the compound to be tested, the medium was replaced by 100 μl MTT dissolved in RPMI at a concentration of 1 mg/ml. The micro-wells were subsequently incubated during 3 hours at 37° C. and centrifuged at 400 g during 10 minutes. MTT was removed and formazan crystals formed were dissolved in 100 μl DMSO. The micro-wells were shaken for 5 minutes and read on a spectrophotometer at wavelengths of 570 nm (maximum formazan absorbance) and 630 nm (background noise).
For each experimental condition, the mean optical density was calculated, as well as the percentage of remaining living cells in comparison with the control.
A general note: Formazan colour is commonly taken as a measure of viable cells.

Data set [2] concerns L1210 (Mouse Leukemia). In words: L1210 mouse leukemia model, survival. It is filed as in vivo, mice. To be noted: median day of death treated/control. As to the method:
L1210 is a syngeneic model (Mouse Leukemia) which may be used to define an optimal treatment regimen (doses and schedule) for subsequent testing of drugs in more expensive and time-consuming orthotopic human xenograft models. The model was performed with 5 mice per group, said mice being grafted at day 0 and the tested compounds being injected intraperitoneally (at the dose indicated in table 4) at days 1, 2, 3, 4, 7, 8, 9 and 10 respectively. The data shown in table 4 are T/C values which were calculated by dividing the median day of death in a treated group T by the median day of death in the control group C. T/C values of 130% or more (i.e. a prolongation of mice survival of 30% or more) indicate a significant prolongation of survival.
The experimental procedure of example 25 was repeated with compounds of examples 17, 19, 33 and 35, and the data obtained from this experiment are reported in table 7.

A short description of data set [3]: in vivo. To be noted: mouse.
Protocol: The maximum tolerated dose (herein after MTD) is defined as the maximum amount of a given drug which can be administered acutely (i.e. in one intraperitoneal, intravenous, subcutaneous or oral single dose) to healthy animals, i.e. animals not grafted with tumors. The survival times and weights of the animals are recorded up to 14 days post injection. Five different doses of each drug are used for the determination of the MTD index. […] Each experimental group comprised 3 mice for the determination of the MTD index (expressed in mg/kg).
The mark [4] stands for this setting: Mus musculus, L1210, ip, dose 10 mg/kg intraperitoneally at days 1, 2, 3, 4, 7, 8, 9 and 10, read-out: T/C (%).
Setting [5] is: Mus musculus, L1210, ip, dose 20 mg/kg intraperitoneally at days 1, 2, 3, 4, 7, 8, 9 and 10, read-out: T/C (%).
Where [6] appears, read: Mus musculus, L1210, ip, dose 40 mg/kg intraperitoneally at days 1, 2, 3, 4, 7, 8, 9 and 10, read-out: T/C (%).
The mark [7] stands for this setting: Mus musculus, L1210, ip, dose 80 mg/kg intraperitoneally at days 1, 2, 3, 4, 7, 8, 9 and 10, read-out: T/C (%).
[8] abbreviates: Mus musculus, L1210, ip, read-out: T/C (%), dose 10 mg/kg intraperitoneally at days 1, 2, 3, 4, 7, 8, 9 and 10.
[9] abbreviates: Mus musculus, L1210, ip, read-out: T/C (%), dose 20 mg/kg intraperitoneally at days 1, 2, 3, 4, 7, 8, 9 and 10.
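For MTD in this document: highest single acute dose (intraperitoneal, intravenous, subcutaneous or oral) tolerated by tumor-free mice, assessed across five dose levels per drug.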

For `CN(C)CCN1C(=O)c2cccc3cc(NC(=O)Nc4ccc(OC(F)(F)F)cc4)cc(c23)C1=O` [Example 10], the IC50 in data set [1] (Homo sapiens, 72 h) is 1 to 5 µM. For the same compound, in data set [2] (setting [4]), the response vs control in vivo at 10 mg/kg stood at 117%. The response vs control in vivo at 20 mg/kg in data set [2] (setting [5]) was found to be 156%. For the same compound, the response vs control in vivo at 40 mg/kg in data set [2] (setting [6]) amounted to 139%. In data set [2] (setting [7]), the response vs control in vivo at 80 mg/kg came out at 194%. In data set [3] (intraperitoneal), the MTD at 14 days was > 160 mg/kg.

Regarding `CN(C)CCN1C(=O)c2cccc3cc(/N=C\c4cc(O)ccc4O)cc(c23)C1=O` [Example 19, 2-[2-(dimethylamino)ethyl]-5-{[(1Z)-(2,5-dihydroxyphenyl)methylene]amino}-1H-benzo[de]isoquinoline-1,3(2H)-dione], in data set [1] (Homo sapiens, 72 h), the IC50 turned out to be 10 µM. In data set [2] (setting [4]), the response vs control in vivo at 10 mg/kg worked out at 150%. In data set [2] (setting [5]), the response vs control in vivo at 20 mg/kg was determined as 144%. In data set [2] (setting [6]), the response vs control in vivo at 40 mg/kg came to 231%. In addition, the response vs control in vivo at 80 mg/kg in data set [2] (setting [7]) was 275%. For the same compound, the MTD at 14 days in data set [3] (intraperitoneal) came to 80 mg/kg.

Turning to `CN(C)CCN1C(=O)c2cccc3cc(N=Cc4ccc5c(c4)OCO5)cc(c23)C1=O` [Example 17, 5-{[(1Z)-1,3-benzodioxol-5-ylmethylene]amino}-N-{2-[2-(dimethylamino)ethyl]-1H-benzo[de]isoquinoline-1,3(2H)-dione], the IC50 in data set [1] (Homo sapiens, 72 h) was > 10 µM. In addition, the response vs control in vivo at 10 mg/kg in data set [2] (setting [4]) is 120%. In addition, the response vs control in vivo at 20 mg/kg in data set [2] (setting [5]) is 233%. Besides, the response vs control in vivo at 40 mg/kg in data set [2] (setting [6]) was determined as 207%. The response vs control in vivo at 80 mg/kg in data set [2] (setting [7]) amounted to 280%. Moreover, the MTD at 14 days in data set [3] (intraperitoneal) was determined as 80 mg/kg.

Turning to `CN(C)CCN1C(=O)c2cccc3cc(NC(=O)Nc4ccc(C#N)cc4)cc(c23)C1=O` [Example 7, N-[2-[2-(dimethylamino)ethyl]-1,3-dioxo-2,3-dihydro-1H-benzo[de]isoquinolin-5-yl]-N′-(4-cyanophenyl)urea], the IC50 in data set [1] (Homo sapiens, 72 h) lay within 1 to 5 µM. In data set [2] (setting [4]), the response vs control in vivo at 10 mg/kg came to 140%. Moreover, the response vs control in vivo at 20 mg/kg in data set [2] (setting [5]) is 147%. Further, in data set [2] (setting [6]), the response vs control in vivo at 40 mg/kg came to 147%. Further, the response vs control in vivo at 80 mg/kg in data set [2] (setting [7]) amounted to 213%. Besides, in data set [3] (intraperitoneal), the MTD at 14 days is > 160 mg/kg.

Regarding `CN(C)CCN1C(=O)c2cccc3cc(N=Cc4cc5c(cc4[N+](=O)[O-])OCO5)cc(c23)C1=O` [Example 35, 5-{[(1Z)-benzo([1,3]dioxol-6-nitro)-5-yl-methylene]amino}-N-(2-[2-dimethylamino)ethyl]-1H-benzo[de]isoquinolin-1,3(2H)-dione], the concentration for half-maximal inhibition (IC50) in data set [1] (Homo sapiens, 72 h) is > 10 µM. Further, the response vs control in vivo at 10 mg/kg in data set [2] (setting [4]) is 213%. Besides, the response vs control in vivo at 20 mg/kg in data set [2] (setting [5]) was found to be 193%. Further, in data set [2] (setting [6]), the response vs control in vivo at 40 mg/kg came out at 280%. For the same compound, the response vs control in vivo at 80 mg/kg in data set [2] (setting [7]) is > 300%. The same compound returned an MTD at 14 days in data set [3] of 80 mg/kg.

On to `CN(C)CCN1C(=O)c2cccc3cc(NC(=O)NC(=O)C(Cl)(Cl)Cl)cc(c23)C1=O` [Example 2, 2,2,2-trichloro-N-[({2-[2-(dimethylamino)ethyl]-1,3-dioxo-2,3-dihydro-1H-benzo[de]isoquinolin-5-yl}amino)carbonyl]acetamide], for which the IC50 in data set [1] was 0.5 to 1 µM. Besides, in data set [2] (setting [8]), the response vs control in vivo at 10 mg/kg was found to be 128%. The response vs control in vivo at 20 mg/kg in data set [2] (setting [9]) was 156%. For the same compound, the response vs control in vivo at 40 mg/kg in data set [2] (Mus musculus, L1210, ip, read-out: T/C (%), dose 40 mg/kg intraperitoneally at days 1, 2, 3, 4, 7, 8, 9 and 10) was 177%. For the same compound, in data set [2] (Mus musculus, L1210, ip, read-out: T/C (%), dose 80 mg/kg intraperitoneally at days 1, 2, 3, 4, 7, 8, 9 and 10), the response vs control in vivo at 80 mg/kg came out at 194%. Besides, the MTD at 14 days in data set [3] is > 160 mg/kg.

Regarding `COc1cc(/C=N\c2cc3c4c(cccc4c2)C(=O)N(CCN(C)C)C3=O)cc(OC)c1OC` [Example 20, 2-[2-(dimethylamino)ethyl]-5-{[(1Z)-(3,4,5-trimethoxyphenyl)methylene]amino}-1H-benzo[de]isoquinoline-1,3(2H)-dione], the IC50 in data set [1] (Homo sapiens, 72 h) fell in the range of 5 to 10 µM. Moreover, the MTD at 14 days in data set [3] is > 80 mg/kg.

`CN(C)CCN1C(=O)c2cccc3cc(NC(=O)Nc4ccc5c(c4)OCO5)cc(c23)C1=O` [Example 9]: in data set [1] (Homo sapiens, 72 h), the IC50 was in the range of 5 to 10 µM. Moreover, the response vs control in vivo at 10 mg/kg in data set [2] (setting [4]) stood at 113%. Further, the response vs control in vivo at 20 mg/kg in data set [2] (setting [5]) was found to be 140%. Also, the response vs control in vivo at 40 mg/kg in data set [2] (setting [6]) is 160%. Besides, the response vs control in vivo at 80 mg/kg in data set [2] (setting [7]) was 187%. Besides, the MTD at 14 days in data set [3] (intraperitoneal) was > 160 mg/kg.

For the compound `CN(C)CCN1C(=O)c2cccc3cc(NC(=O)NC(=O)C(Cl)(Cl)Cl)cc(c23)C1=O.Cl` [Example 33, 2,2,2-trichloro-N-[({2-[2-(dimethylamino)ethyl]-1,3-dioxo-2,3-dihydro-1H-benzo[de]isoquinolin-5-yl}amino)carbonyl]acetamide hydrochloride], in data set [1] (hydrochloride), the IC50 was in the range of 5 to 10 µM. Also, the “T/C (%)” value in data set [2] (dose 10 mg/kg intraperitoneally at days 1, 2, 3, 4, 7, 8, 9 and 10) is recorded as 148%; in data set [2] (dose 20 mg/kg intraperitoneally at days 1, 2, 3, 4, 7, 8, 9 and 10), 138%; in data set [2] (dose 40 mg/kg intraperitoneally at days 1, 2, 3, 4, 7, 8, 9 and 10) it was 186%; in data set [2] (dose 80 mg/kg intraperitoneally at days 1, 2, 3, 4, 7, 8, 9 and 10), 200%. In data set [3], this compound returned an MTD at 14 days of 120 mg/kg.

As for `CN(C)CCN1C(=O)c2cccc3cc(NC(=S)NCc4ccc5c(c4)OCO5)cc(c23)C1=O` [Example 22], in data set [1] (Homo sapiens, 72 h), the IC50 was > 10 µM. Besides, the MTD at 14 days in data set [3] is > 80 mg/kg.

Take `CN(C)CCN1C(=O)c2cccc3cc([N+](=O)[O-])cc(c23)C1=O` [mitonafide, reference compound]: in data set [1] (Homo sapiens, 72 h), the IC50 lay in the range of 1 to 5 µM. Also, the response vs control in vivo at 2.5 mg/kg in data set [2] (Mus musculus, L1210, ip, read-out: T/C (%), dose 2.5 mg/kg intraperitoneally at days 1, 2, 3, 4, 7, 8, 9 and 10) came to 107%. Moreover, the response vs control in vivo at 5 mg/kg in data set [2] (Mus musculus, L1210, ip, read-out: T/C (%), dose 5 mg/kg intraperitoneally at days 1, 2, 3, 4, 7, 8, 9 and 10) was 140%. For the same compound, the response vs control in vivo at 10 mg/kg in data set [2] (setting [8]) was 120%. Further, the response vs control in vivo at 20 mg/kg in data set [2] (setting [9]) turned out to be 193%. In data set [3], the MTD at 14 days was determined as 40 mg/kg.

`CN(C)CCN1C(=O)c2cccc3cc(NCc4ccccc4OC4OC(CO)C(O)C(O)C4O)cc(c23)C1=O` (stereo not drawn) [Example 37]: in data set [1] (Homo sapiens, 72 h), the IC50 was in the range of 5 to 10 µM. The MTD at 14 days in data set [3] is > 80 mg/kg.
